This test addresses T1, Recombinant human TPH1 (MBP tagged) (Homo sapiens, UniProt P17752).
T1 construct: cloning full length human TPH1 cDNA in to a bacterial pMAL-c5E expression vector; made in house; host or cells: E. coli BL21 (DE3)
T1 sequence (P17752 1-444): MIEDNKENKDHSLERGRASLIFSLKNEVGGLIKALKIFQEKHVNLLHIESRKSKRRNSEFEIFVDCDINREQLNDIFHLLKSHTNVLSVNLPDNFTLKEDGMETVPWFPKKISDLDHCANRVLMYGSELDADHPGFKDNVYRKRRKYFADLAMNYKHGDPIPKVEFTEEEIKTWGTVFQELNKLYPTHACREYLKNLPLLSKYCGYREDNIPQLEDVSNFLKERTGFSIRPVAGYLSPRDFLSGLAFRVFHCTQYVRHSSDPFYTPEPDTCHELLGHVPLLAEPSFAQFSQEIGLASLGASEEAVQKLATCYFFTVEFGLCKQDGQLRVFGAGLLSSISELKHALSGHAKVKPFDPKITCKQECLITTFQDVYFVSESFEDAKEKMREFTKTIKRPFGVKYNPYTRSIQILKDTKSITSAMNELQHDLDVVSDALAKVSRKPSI
The test is described as follows: TPH1 in vitro inhibition assay (kinetic fluorescence). Format: biochemical. The conditions noted are these: read-out: TPH1 Range (TPH1 inhibition IC50). The essentials:
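Final mix: 15 nM MBP-TPH1, 30 μM Trp, 36 μM 6-methyltetrahydropterin, 25 μM ferrous ammonium sulfate, 50 mM MES pH 7.1, 1% DMSO, room temperature.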

SMILES strings stand for the structures.

Usually IC50 stands for the concentration that inhibits the measured activity by half.

On to `Cc1ccn(-c2ccc(-c3cccc(C(=O)O)c3)cc2[C@@H](Oc2cc(N3CCC4(CC3)CN[C@H](C(=O)O)C4)nc(N)n2)C(F)(F)F)n1` [Example 19f, (S)-8-(2-amino-6-((R)-1-(3′-carboxy-4-(3-methyl-1H-pyrazol-1-yl)-[1,1′-biphenyl]-3-yl)-2,2,2-trifluoroethoxy)pyrimidin-4-yl)-2,8-diazaspiro[4.5] decane-3-carboxylic acid], for which the IC50 was less than 0.05 µM.
For `Cc1ccn(-c2ccc(-c3ccc(C(=O)O)cc3)cc2[C@@H](Oc2cc(N3CCC4(CC3)CN[C@H](C(=O)O)C4)nc(N)n2)C(F)(F)F)n1` [Example 19g, (S)-8-(2-amino-6-((R)-1-(4′-carboxy-4-(3-methyl-1H-pyrazol-1-yl)-[1,1′-biphenyl]-3-yl)-2,2,2-trifluoroethoxy)pyrimidin-4-yl)-2,8-diazaspiro[4.5] decane-3-carboxylic acid], the IC50 was less than 0.05 µM.
Consider `Cc1ccn(-c2ccc(-c3cccc(/C=C/C(=O)O)c3)cc2[C@@H](Oc2cc(N3CCC4(CC3)CN[C@H](C(=O)O)C4)nc(N)n2)C(F)(F)F)n1` [Example 19h, (S)-8-(2-amino-6-((R)-1-(3′-((E)-2-carboxyvinyl)-4-(3-methyl-1H-pyrazol-1-yl)-[1,1′-biphenyl]-3-yl)-2,2,2-trifluoroethoxy)pyrimidin-4-yl)-2,8-diazaspiro[4.5] decane-3-carboxylic acid], for which the IC50 was less than 0.05 µM.
For the compound `Cc1ccn(-c2ccc(-c3ccc(/C=C/C(=O)O)cc3)cc2[C@@H](Oc2cc(N3CCC4(CC3)CN[C@H](C(=O)O)C4)nc(N)n2)C(F)(F)F)n1` [Example 19i, (S)-8-(2-amino-6-((R)-1-(4′-((E)-2-carboxyvinyl)-4-(3-methyl-1H-pyrazol-1-yl)-[1,1′-biphenyl]-3-yl)-2,2,2-trifluoroethoxy)pyrimidin-4-yl)-2,8-diazaspiro[4.5] decane-3-carboxylic acid], the IC50 was less than 0.05 µM.
Turning to `Cc1ccn(-c2ccc(-c3cccc(CCC(=O)O)c3)cc2[C@@H](Oc2cc(N3CCC4(CC3)CN[C@H](C(=O)O)C4)nc(N)n2)C(F)(F)F)n1` [Example 19j, (S)-8-(2-amino-6-((R)-1-(3′-(2-carboxyethyl)-4-(3-methyl-1H-pyrazol-1-yl)-[1,1′-biphenyl]-3-yl)-2,2,2-trifluoroethoxy)pyrimidin-4-yl)-2,8-diazaspiro[4.5] decane-3-carboxylic acid], the IC50 was less than 0.05 µM.
Regarding `Cc1ccn(-c2ccc(-c3ccc(CCC(=O)O)cc3)cc2[C@@H](Oc2cc(N3CCC4(CC3)CN[C@H](C(=O)O)C4)nc(N)n2)C(F)(F)F)n1` [Example 19k, (S)-8-(2-amino-6-((R)-1-(4′-(2-carboxyethyl)-4-(3-methyl-1H-pyrazol-1-yl)-[1,1′-biphenyl]-3-yl)-2,2,2-trifluoroethoxy)pyrimidin-4-yl)-2,8-diazaspiro[4.5] decane-3-carboxylic acid], the IC50 is less than 0.05 µM.
With `Cc1ccn(-c2ccc(-c3ccc(CO)c(C)c3)cc2[C@@H](Oc2cc(N3CCC4(CC3)CN[C@H](C(=O)O)C4)nc(N)n2)C(F)(F)F)n1` [Example 19l, (S)-8-(2-amino-6-((R)-2,2,2-trifluoro-1-(4′-(hydroxymethyl)-3′-methyl-4-(3-methyl-1H-pyrazol-1-yl)-[1,1′-biphenyl]-3-yl)ethoxy)pyrimidin-4-yl)-2,8-diazaspiro[4.5]decane-3-carboxylic acid], the IC50 is less than 0.05 µM.
Regarding `Cc1ccn(-c2ccc(-c3ccc(C)c(CO)c3)cc2[C@@H](Oc2cc(N3CCC4(CC3)CN[C@H](C(=O)O)C4)nc(N)n2)C(F)(F)F)n1` [Example 19m, (S)-8-(2-amino-6-((R)-2,2,2-trifluoro-1-(3′-(hydroxymethyl)-4′-methyl-4-(3-methyl-1H-pyrazol-1-yl)-[1,1′-biphenyl]-3-yl)ethoxy)pyrimidin-4-yl)-2,8-diazaspiro[4.5]decane-3-carboxylic acid], the half-maximal inhibitory concentration (IC50) was less than 0.05 µM.
For the compound `Cc1ccn(-c2ccc(-c3ccccc3)cc2[C@@H](Oc2cc(N3CCC4(CC3)CN[C@H](C(=O)O)C4)nc(N)n2)C(F)(F)F)n1` [Example 19n, (S)-8-(2-amino-6-((R)-2,2,2-trifluoro-1-(4-(3-methyl-1H-pyrazol-1-yl)-[1,1′-biphenyl]-3-yl)ethoxy)pyrimidin-4-yl)-2,8-diazaspiro[4.5]decane-3-carboxylic acid], the concentration for half-maximal inhibition (IC50) was less than 0.05 µM.
For `Cc1ccn(-c2ccc(-c3ccc(F)c(F)c3)cc2[C@@H](Oc2cc(N3CCC4(CC3)CN[C@H](C(=O)O)C4)nc(N)n2)C(F)(F)F)n1` [Example 19o, (S)-8-(2-amino-6-((R)-1-(3′,4′-difluoro-4-(3-methyl-1H-pyrazol-1-yl)-[1,1′-biphenyl]-3-yl)-2,2,2-trifluoroethoxy)pyrimidin-4-yl)-2,8-diazaspiro[4.5] decane-3-carboxylic acid], the IC50 is less than 0.05 µM.
Take `Cc1ccn(-c2ccc(-c3ccc(Cl)c(Cl)c3)cc2[C@@H](Oc2cc(N3CCC4(CC3)CN[C@H](C(=O)O)C4)nc(N)n2)C(F)(F)F)n1` [Example 19p, (S)-8-(2-amino-6-((R)-1-(3′,4′-dichloro-4-(3-methyl-1H-pyrazol-1-yl)-[1,1′-biphenyl]-3-yl)-2,2,2-trifluoroethoxy)pyrimidin-4-yl)-2,8-diazaspiro[4.5] decane-3-carboxylic acid]: the half-inhibitory concentration (IC50) is less than 0.05 µM.
In the case of `Cc1ccn(-c2ccc(-c3ccc(Cl)cc3)cc2[C@@H](Oc2cc(N3CCC4(CC3)CN[C@H](C(=O)O)C4)nc(N)n2)C(F)(F)F)n1` [Example 19q, (S)-8-(2-amino-6-((R)-1-(4′-chloro-4-(3-methyl-1H-pyrazol-1-yl)-[1,1′-biphenyl]-3-yl)-2,2,2-trifluoroethoxy)pyrimidin-4-yl)-2,8-diazaspiro[4.5] decane-3-carboxylic acid], the IC50 was less than 0.05 µM.
For the compound `Cc1ccn(-c2ccc(-c3ccc(CO)cc3)cc2[C@@H](Oc2cc(N3CCC4(CC3)CN[C@H](C(=O)O)C4)nc(N)n2)C(F)(F)F)n1` [Example 19r, (S)-8-(2-amino-6-((R)-2,2,2-trifluoro-1-(4′-(hydroxymethyl)-4-(3-methyl-1H-pyrazol-1-yl)-[1,1′-biphenyl]-3-yl)ethoxy)pyrimidin-4-yl)-2,8-diazaspiro[4.5]decane-3-carboxylic acid], the IC50 was less than 0.05 µM.
Next, `CCOC(=O)c1ccccc1-c1ccc(-n2ccc(C)n2)c([C@@H](Oc2cc(N3CCC4(CC3)CN[C@H](C(=O)O)C4)nc(N)n2)C(F)(F)F)c1` [Example 20, (S)-8-(2-amino-6-((R)-1-(2′-(ethoxycarbonyl)-4-(3-methyl-1H-pyrazol-1-yl)-[1,1′-biphenyl]-3-yl)-2,2,2-trifluoroethoxy)pyrimidin-4-yl)-2,8-diazaspiro[4.5]decane-3-carboxylic acid]: less than 0.05 µM; `CCOC(=O)c1ccc(-c2ccc(-n3ccc(C)n3)c([C@@H](Oc3cc(N4CCC5(CC4)CN[C@H](C(=O)O)C5)nc(N)n3)C(F)(F)F)c2)cc1` [Example 21, (S)-8-(2-amino-6-((R)-1-(4′-(ethoxycarbonyl)-4-(3-methyl-1H-pyrazol-1-yl)-[1,1′-biphenyl]-3-yl)-2,2,2-trifluoroethoxy)pyrimidin-4-yl)-2,8-diazaspiro[4.5]decane-3-carboxylic acid]: less than 0.05 µM.

The values above are taken from patent US11759462B2, “Spirocyclic compounds as tryptophan hydroxylase inhibitors” (priority 2013, dated 2023).
